Assay results taken from patent publication US8592448B2 (OSI Pharmaceuticals, LLC, priority 2008, dated 2013).
Where two headings read alike, the source gives them in different places.

Assays:
MKN45 cells = experiment: MKN45 cell proliferation assay (CellTiter-Glo); assay type: cell-based; settings: MKN45 cell line, 3 days incubation, at least duplicate experiments, read-out: Prolif. IC50
Procedure, shortened: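 MKN45 cells (5000/well, RPMI + 10% FCS) plated overnight, then exposed to 8-point dilution series, typically 10 μM to 0.6 nM, in 0.1% DMSO for 3 days at 37 °C. CellTiter-Glo luminescence as % of DMSO control; IC50 from four-parameter fit, at least duplicate experiments.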

Ron = target: T1, Ron (Homo sapiens, UniProt Q04912); experiment: Ron kinase assay (Invitrogen Z′-LYTE kinase assay platform); assay type: biochemical; settings: Z′-LYTE kinase assay at Invitrogen, ATP concentration of 100 μM
T1 construct: purchased Invitrogen
Description: (§1) The activities of exemplary compounds of the present invention against Ron and c-Met determined at Invitrogen using the Z′-LYTE™ kinase assay platform are shown in Table 1: A, IC50≦0.1 μM; B, 0.1 μM<IC50≦1 μM; C, 1 μM<IC50≦10 μM; D, IC50>10 μM. The assays were conducted at an ATP concentration of 100 μM. The Example # of Table 1 corresponds to the compound example number as illustrated in the Examples section.

c-Met = target: T2, c-Met (Homo sapiens, UniProt P08581); experiment: c-Met kinase assay (Invitrogen Z′-LYTE kinase assay platform); assay type: biochemical; settings: Z′-LYTE kinase assay at Invitrogen, ATP concentration of 100 μM
T2 construct: purchased Invitrogen
Description: as §1

phosphorylated c-MET = target: T3, phosphorylated c-MET (Homo sapiens, UniProt P08581); experiment: c-MET cell mechanistic assay (phosphorylated c-MET in MKN45 cells); assay type: cell-based; settings: MKN45 cell line, four hours incubation, phosphorylated c-MET levels, at least duplicate experiments; read-out: Met mech IC50
T3 construct: endogenous in cells; host or cells: MKN45
Procedure, shortened: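 MKN45 cells were treated 4 h at 37 °C with a 6-point dilution series (typically 10 μM to 3 nM; final 0.5% DMSO). Phospho-c-MET (pY1230/1234/1235) in lysates was measured by capture ELISA with HRP read-out at 450 nm. IC50 came from a four-parameter fit of percent of DMSO control.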

T1 sequence (Q04912 25-1400): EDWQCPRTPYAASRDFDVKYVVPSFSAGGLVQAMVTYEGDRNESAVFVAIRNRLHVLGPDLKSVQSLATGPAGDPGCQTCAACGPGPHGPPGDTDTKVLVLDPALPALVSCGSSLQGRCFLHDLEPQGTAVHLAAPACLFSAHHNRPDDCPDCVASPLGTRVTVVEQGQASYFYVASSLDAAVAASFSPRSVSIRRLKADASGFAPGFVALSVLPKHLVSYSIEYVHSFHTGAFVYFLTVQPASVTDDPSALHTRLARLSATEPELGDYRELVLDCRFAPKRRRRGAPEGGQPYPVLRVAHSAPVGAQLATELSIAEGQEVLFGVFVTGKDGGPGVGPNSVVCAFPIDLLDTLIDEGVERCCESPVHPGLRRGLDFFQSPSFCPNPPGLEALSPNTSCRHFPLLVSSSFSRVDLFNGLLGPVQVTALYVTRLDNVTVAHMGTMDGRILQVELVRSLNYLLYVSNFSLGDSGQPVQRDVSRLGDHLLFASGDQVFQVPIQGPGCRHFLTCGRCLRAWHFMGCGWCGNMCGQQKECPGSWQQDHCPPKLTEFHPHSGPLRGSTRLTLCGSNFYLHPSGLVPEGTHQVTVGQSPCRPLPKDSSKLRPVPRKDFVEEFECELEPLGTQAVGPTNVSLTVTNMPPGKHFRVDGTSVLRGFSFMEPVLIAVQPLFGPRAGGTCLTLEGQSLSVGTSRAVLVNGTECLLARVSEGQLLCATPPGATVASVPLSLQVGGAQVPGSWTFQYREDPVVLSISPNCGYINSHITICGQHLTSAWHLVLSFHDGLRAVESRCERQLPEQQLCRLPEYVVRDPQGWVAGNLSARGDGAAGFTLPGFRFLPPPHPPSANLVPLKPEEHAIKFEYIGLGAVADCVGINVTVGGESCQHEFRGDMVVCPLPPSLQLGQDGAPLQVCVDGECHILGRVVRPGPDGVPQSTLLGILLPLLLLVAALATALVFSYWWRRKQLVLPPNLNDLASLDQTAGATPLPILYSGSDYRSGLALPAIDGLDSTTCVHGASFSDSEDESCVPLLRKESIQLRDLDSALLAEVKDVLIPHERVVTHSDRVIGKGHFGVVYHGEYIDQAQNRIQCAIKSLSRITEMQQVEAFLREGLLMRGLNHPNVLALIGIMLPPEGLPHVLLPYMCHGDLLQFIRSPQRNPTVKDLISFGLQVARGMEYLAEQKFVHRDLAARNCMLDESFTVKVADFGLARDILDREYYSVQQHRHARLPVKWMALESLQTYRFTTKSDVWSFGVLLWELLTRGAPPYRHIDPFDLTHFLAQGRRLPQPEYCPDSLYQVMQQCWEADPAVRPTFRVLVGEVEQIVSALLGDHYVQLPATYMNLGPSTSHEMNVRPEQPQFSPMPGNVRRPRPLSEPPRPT
T3 sequence (P08581 25-1390): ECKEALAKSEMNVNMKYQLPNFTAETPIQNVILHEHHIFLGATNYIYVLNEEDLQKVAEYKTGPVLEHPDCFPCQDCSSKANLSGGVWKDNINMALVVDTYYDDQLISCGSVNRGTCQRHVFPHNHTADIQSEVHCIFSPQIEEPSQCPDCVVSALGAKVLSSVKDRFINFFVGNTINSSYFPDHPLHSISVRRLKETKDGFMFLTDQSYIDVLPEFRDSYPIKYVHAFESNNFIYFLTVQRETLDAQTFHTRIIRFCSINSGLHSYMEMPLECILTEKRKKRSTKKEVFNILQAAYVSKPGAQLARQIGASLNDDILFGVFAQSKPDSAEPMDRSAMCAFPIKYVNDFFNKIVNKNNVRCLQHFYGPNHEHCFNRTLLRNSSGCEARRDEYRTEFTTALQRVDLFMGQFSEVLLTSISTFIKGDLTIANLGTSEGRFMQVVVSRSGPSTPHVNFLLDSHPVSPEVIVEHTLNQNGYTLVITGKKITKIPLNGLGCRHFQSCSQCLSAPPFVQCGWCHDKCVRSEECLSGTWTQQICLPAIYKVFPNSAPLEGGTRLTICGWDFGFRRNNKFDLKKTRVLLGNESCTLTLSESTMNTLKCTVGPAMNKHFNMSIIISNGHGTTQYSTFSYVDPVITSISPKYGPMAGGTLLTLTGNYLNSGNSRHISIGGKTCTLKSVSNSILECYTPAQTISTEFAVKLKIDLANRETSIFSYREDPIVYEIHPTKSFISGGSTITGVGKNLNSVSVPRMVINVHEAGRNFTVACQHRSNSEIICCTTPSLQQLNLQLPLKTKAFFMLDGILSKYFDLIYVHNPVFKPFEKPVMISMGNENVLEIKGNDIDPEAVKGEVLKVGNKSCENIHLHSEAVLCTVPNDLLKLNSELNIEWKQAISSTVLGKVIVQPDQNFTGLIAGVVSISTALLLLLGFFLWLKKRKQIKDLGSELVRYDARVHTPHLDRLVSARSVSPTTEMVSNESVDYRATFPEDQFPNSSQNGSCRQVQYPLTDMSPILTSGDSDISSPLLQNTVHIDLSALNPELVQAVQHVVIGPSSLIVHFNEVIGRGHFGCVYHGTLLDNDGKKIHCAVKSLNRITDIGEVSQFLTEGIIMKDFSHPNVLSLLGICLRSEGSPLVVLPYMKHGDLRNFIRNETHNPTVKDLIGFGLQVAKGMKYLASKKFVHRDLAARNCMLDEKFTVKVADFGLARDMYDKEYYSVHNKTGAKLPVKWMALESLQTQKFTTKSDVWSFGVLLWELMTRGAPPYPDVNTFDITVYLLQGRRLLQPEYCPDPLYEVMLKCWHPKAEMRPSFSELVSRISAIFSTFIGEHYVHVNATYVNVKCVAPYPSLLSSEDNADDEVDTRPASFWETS
T2 sequence (P08581 25-1390): as above

IC50 (MKN45 cells) [nM]	IC50 (Ron) [nM]	IC50 (c-Met) [nM]	IC50 (MKN45 cells; Homo sapiens, MKN-45, 72 h) [nM]	IC50 (phosphorylated c-MET) [nM]	Structure (SMILES)
≤ 100	100 to 1000	≤ 100	–	–	CC(c1c(Cl)ccc(F)c1Cl)c1c[nH]c2ncc(-c3cnn(C4CCN(C=O)CC4)c3)cc12 (centres unmarked) [Example 71, 4-(4-{3-[1-(2,6-Dichloro-3-fluorophenyl)ethyl]-1H-pyrrolo[2,3-b]pyridin-5-yl}-pyrazol-1-yl)-piperidine-1-carbaldehyde]
–	≤ 100	≤ 100	≤ 100	≤ 100	CC(c1c(Cl)ccc(F)c1Cl)c1c[nH]c2ncc(-c3cnn(C4CCNCC4)c3)cc12 (centres unmarked) [Example 2, 3-[1-(2,6-Dichloro-3-fluorophenyl)ethyl]-5-(1-piperidin-4-yl-1H-pyrazol-4-yl)-1H-pyrrolo[2,3-b]pyridine]
–	1000 to 10000	≤ 100	≤ 100	≤ 100	C[C@H](c1c(Cl)ccc(F)c1Cl)c1c[nH]c2ncc(-c3cnn(CCO)c3)cc12 [Example 70, 2-(4-{3-[(S)-1-(2,6-Dichloro-3-fluorophenyl)ethyl]-1H-pyrrolo[2,3-b]-pyridin-5-yl}pyrazol-1-yl)ethanol]
–	–	–	100 to 1000	≤ 100	CC(c1c(Cl)ccc(F)c1Cl)c1c[nH]c2ncc(C3=CCN(C(=O)[C@H](C)O)CC3)cc12 (stereo partly drawn) [Example 41, (S)-1-(4-{3-[1-(2,6-Dichloro-3-fluorophenyl)ethyl]-1H-pyrrolo[2,3-b]-pyridin-5-yl}-3,6-dihydro-2H-pyridin-1-yl)-2-hydroxypropan-1-one]
–	–	–	100 to 1000	100 to 1000	CC(c1c(Cl)ccc(F)c1Cl)c1c[nH]c2ncc(-c3cccnc3)cc12 (centres unmarked) [Example 88, 3-[1-(2,6-Dichloro-3-fluorophenyl)ethyl]-5-pyridin-3-yl-1H-pyrrolo[2,3-b]pyridine]
–	–	–	≤ 100	100 to 1000	CC(c1c(Cl)ccc(F)c1Cl)c1c[nH]c2ncc(-c3cnn(C4CCN(C(N)=O)CC4)c3)cc12 (centres unmarked) [Example 49, 4-(4-{3-[1-(2,6-Dichloro-3-fluorophenyl)ethyl]-1H-pyrrolo[2,3-b]pyridin-5-yl}-pyrazol-1-yl)-piperidine-1-carboxamide]
–	–	–	≤ 100	≤ 100	CNC(=O)Cn1cc(-c2cnc3[nH]cc([C@H](C)c4c(Cl)ccc(F)c4Cl)c3c2)cn1 [Example 76, 2-(4-{3-[(S)-1-(2,6-Dichloro-3-fluorophenyl)ethyl]-1H-pyrrolo[2,3-b]-pyridin-5-yl}-pyrazol-1-yl)-N-methylacetamide]
–	–	–	≤ 100	≤ 100	CC(c1c(Cl)ccc(F)c1Cl)c1c[nH]c2ncc(-c3cnn(C4CCC(=O)CC4)c3)cc12 (centres unmarked) [Example 89, 4-(4-{3-[1-(2,6-Dichloro-3-fluorophenyl)ethyl]-1H-pyrrolo[2,3-b]pyridin-5-yl}-pyrazol-1-yl)cyclohexanone]
–	–	–	100 to 1000	≤ 100	C[C@H](c1c(Cl)ccc(F)c1Cl)c1c[nH]c2ncc(C3=CCCN(C(N)=O)C3)cc12 [Example 67, 5-{3-[(S)-1-(2,6-Dichloro-3-fluorophenyl)ethyl]-1H-pyrrolo[2,3-b]pyridin-5-yl}-3,6-dihydro-2H-pyridine-1-carboxamide]
–	≤ 100	≤ 100	100 to 1000	≤ 100	CC(c1c(Cl)cccc1Cl)c1c[nH]c2ncc(-c3cnn(C4CCNCC4)c3)cc12 (centres unmarked) [Example 1, 3-[1-(2,6-Dichlorophenyl)ethyl]-5-(1-piperidin-4-yl-1H-pyrazol-4-yl)-1H-pyrrolo[2,3-b]pyridine]
–	–	–	1000 to 10000	1000 to 10000	CC(c1c(Cl)ccc(F)c1Cl)c1c[nH]c2ncc(-c3ccc(S(=O)(=O)N(C)C)cc3)cc12 (centres unmarked) [Example 22, 4-{3-[1-(2,6-Dichloro-3-fluorophenyl)ethyl]-1H-pyrrolo[2,3-b]pyridin-5-yl}-N,N-dimethylbenzenesulfonamide]
–	–	–	100 to 1000	100 to 1000	CC(c1c(Cl)ccc(F)c1Cl)c1c[nH]c2ncc(-c3ccc(C(=O)NCCN4CCOCC4)cc3)cc12 (centres unmarked) [Example 7, 4-{3-[1-(2,6-Dichloro-3-fluorophenyl)ethyl]-1H-pyrrolo[2,3-b]pyridin-5-yl}-N-(2-morpholin-4-ylethyl)benzamide]
–	–	–	100 to 1000	100 to 1000	CNC(=O)c1ccc(-c2cnc3[nH]cc(C(C)c4c(Cl)ccc(F)c4Cl)c3c2)cc1 (centres unmarked) [Example 5, 4-{3-[1-(2,6-Dichloro-3-fluorophenyl)ethyl]-1H-pyrrolo[2,3-b]pyridin-5-yl}-N-methylbenzamide]
–	–	–	100 to 1000	100 to 1000	CC(c1c(Cl)ccc(F)c1Cl)c1c[nH]c2ncc(-c3ccc(C(=O)N4CCOCC4)cc3)cc12 (centres unmarked) [Example 13, (4-{3-[1-(2,6-Dichloro-3-fluorophenyl)ethyl]-1H-pyrrolo[2,3-b]pyridin-5-yl}phenyl)morpholin-4-ylmethanone]
–	–	–	≤ 100	≤ 100	C[C@H](c1c(Cl)ccc(F)c1Cl)c1c[nH]c2ncc(-c3cnn(CC(=O)N4CCN(C)CC4)c3)cc12 [Example 79, 2-(4-{3-[(S)-1-(2,6-Dichloro-3-fluorophenyl)ethyl]-1H-pyrrolo[2,3-b]-pyridin-5-yl}-pyrazol-1-yl)-1-(4-methylpiperazin-1-yl)ethanone]
–	–	–	100 to 1000	≤ 100	CC(c1c(Cl)ccc(F)c1Cl)c1c[nH]c2ncc(-c3cnn(C(C)(C)C(=O)N(C)C)c3)cc12 (centres unmarked) [Example 63, 2-(4-{3-[1-(2,6-Dichloro-3-fluorophenyl)ethyl]-1H-pyrrolo[2,3-b]pyridin-5-yl}-pyrazol-1-yl)-N,N-dimethylisobutyramide]
–	–	–	≤ 100	≤ 100	C[C@H](c1c(Cl)ccc(F)c1Cl)c1c[nH]c2ncc(-c3cnn(CC(N)=O)c3)cc12 [Example 77, 2-(4-{3-[(S)-1-(2,6-Dichloro-3-fluorophenyl)ethyl]-1H-pyrrolo[2,3-b]-pyridin-5-yl}-pyrazol-1-yl)-acetamide]
–	–	–	100 to 1000	100 to 1000	CC(c1c(Cl)ccc(F)c1Cl)c1c[nH]c2ncc(-c3ccc(C(=O)NCCN(C)C)cc3)cc12 (centres unmarked) [Example 20, 4-{3-[1-(2,6-Dichloro-3-fluorophenyl)ethyl]-1H-pyrrolo[2,3-b]pyridin-5-yl}-N-(2-dimethylaminoethyl)benzamide]
–	–	–	≤ 100	≤ 100	CC(c1c(Cl)ccc(F)c1Cl)c1c[nH]c2ncc(-c3cnn(C4CN(C=O)C4)c3)cc12 (centres unmarked) [Example 55, 3-(4-{3-[1-(2,6-Dichloro-3-fluorophenyl)ethyl]-1H-pyrrolo[2,3-b]pyridin-5-yl}-pyrazol-1-yl)-azetidine-1-carbaldehyde]
–	–	–	≤ 100	≤ 100	CC(c1c(Cl)ccc(F)c1Cl)c1c[nH]c2ncc(C3=CCN(C(=O)C(C)(C)N)CC3)cc12 (centres unmarked) [Example 45, 2-Amino-1-(4-{3-[1-(2,6-dichloro-3-fluorophenyl)ethyl]-1H-pyrrolo[2,3-b]pyridin-5-yl}-3,6-dihydro-2H-pyridin-1-yl)-2-methylpropan-1-one]
